Laboratory results reported in ChEMBL document CHEMBL1201862, “PubChem BioAssay data set” (2004).
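Growth conditions: 96-well plates. Treatment: test compound, 48 hours, 5 concentrations. Analysis: linear interpolation between bracketing concentrations; unreached endpoints set to highest concentration. Here, GI50 denotes the concentration required for 50% inhibition of growth.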 Calls of active or inactive are those of the source. No stated cut-off is given here; in the data, active = GI50 up to about 1.1 µM and inactive = higher.

Tests used:
Test in all cases: NCI-60 cell line screen, 48 h
[1] = system: MOLT-4
[2] = system: U-251
[3] = system: NCI-H226
[4] = system: SF-539
[5] = system: KM12
[6] = system: MDA-MB-231
[7] = system: SN12C
[8] = system: SK-MEL-2
[9] = system: MDA-MB-435
[10] = system: SF-268
[11] = system: LXFL 529
[12] = system: SNB-19
[13] = system: DU-145
[14] = system: OVCAR-5
[15] = system: ACHN
[16] = system: OVCAR-8
[17] = system: NCI-H23
[18] = system: SK-MEL-28
[19] = system: COLO 205
[20] = system: A549

Measured: GI50

CN(C)c1n/c(=N/Cc2ccco2)ss1
inactive: [1] 5.73 µM | [2] 31.5 µM | [3] 62.2 µM | [4] 13 µM | [5] 3.72 µM | [6] 15.8 µM | [7] 31.6 µM | [8] > 21.1 µM | [9] 20.5 µM | [10] 11.7 µM | [11] 38.9 µM | [12] 60.5 µM | [13] > 66.5 µM | [14] > 40.5 µM | [15] 25.9 µM | [16] 31.7 µM | [17] 25.6 µM | [18] 11.6 µM | [19] 2.06 µM | [20] 15.6 µM

COc1cc(/C=C/c2ccc(OC)c(O)c2)cc(OC)c1
inactive: [1] 3.35 µM | [2] 3.92 µM | [3] 3.45 µM | [4] 2.39 µM | [5] 12.4 µM | [7] 8.51 µM | [8] 6.41 µM | [10] 8.55 µM | [11] 6.03 µM | [12] 3.87 µM | [14] 31.8 µM | [15] 7.52 µM | [16] 5.92 µM | [17] 3.44 µM | [18] 6.08 µM | [19] 26.5 µM | [20] 4.82 µM

FC(F)(F)c1ccc(C2SCc3nc4ccccc4n32)cc1 (stereo unspecified)
inactive: [1] 12.1 µM | [2] > 100 µM | [3] > 100 µM | [4] > 100 µM | [5] 50 µM | [7] > 100 µM | [8] > 100 µM | [10] 95.3 µM | [11] 23.4 µM | [12] > 100 µM | [14] 15.5 µM | [15] 39.2 µM | [16] > 100 µM | [17] 5.89 µM | [18] > 100 µM | [19] > 100 µM | [20] 41.8 µM

Oc1ccc(Br)cc1/C=N/c1ccc(Oc2ccc(/N=C/c3cc(Br)ccc3O)cc2)cc1
inactive: [1] > 19.6 µM | [2] > 19.6 µM | [3] > 19.6 µM | [4] > 19.6 µM | [5] > 19.6 µM | [7] > 19.6 µM | [8] > 19.6 µM | [10] > 19.6 µM | [11] > 19.6 µM | [12] > 19.6 µM | [14] > 19.6 µM | [15] > 19.6 µM | [16] > 19.6 µM | [17] > 19.6 µM | [18] > 19.6 µM | [19] > 19.6 µM | [20] > 19.6 µM
